Test [1] addresses T1, AsolRXFP/LGR3 (Acanthaster planci, UniProt A0A8B7XXQ8).
T1 sequence (A0A8B7XXQ8 1-847): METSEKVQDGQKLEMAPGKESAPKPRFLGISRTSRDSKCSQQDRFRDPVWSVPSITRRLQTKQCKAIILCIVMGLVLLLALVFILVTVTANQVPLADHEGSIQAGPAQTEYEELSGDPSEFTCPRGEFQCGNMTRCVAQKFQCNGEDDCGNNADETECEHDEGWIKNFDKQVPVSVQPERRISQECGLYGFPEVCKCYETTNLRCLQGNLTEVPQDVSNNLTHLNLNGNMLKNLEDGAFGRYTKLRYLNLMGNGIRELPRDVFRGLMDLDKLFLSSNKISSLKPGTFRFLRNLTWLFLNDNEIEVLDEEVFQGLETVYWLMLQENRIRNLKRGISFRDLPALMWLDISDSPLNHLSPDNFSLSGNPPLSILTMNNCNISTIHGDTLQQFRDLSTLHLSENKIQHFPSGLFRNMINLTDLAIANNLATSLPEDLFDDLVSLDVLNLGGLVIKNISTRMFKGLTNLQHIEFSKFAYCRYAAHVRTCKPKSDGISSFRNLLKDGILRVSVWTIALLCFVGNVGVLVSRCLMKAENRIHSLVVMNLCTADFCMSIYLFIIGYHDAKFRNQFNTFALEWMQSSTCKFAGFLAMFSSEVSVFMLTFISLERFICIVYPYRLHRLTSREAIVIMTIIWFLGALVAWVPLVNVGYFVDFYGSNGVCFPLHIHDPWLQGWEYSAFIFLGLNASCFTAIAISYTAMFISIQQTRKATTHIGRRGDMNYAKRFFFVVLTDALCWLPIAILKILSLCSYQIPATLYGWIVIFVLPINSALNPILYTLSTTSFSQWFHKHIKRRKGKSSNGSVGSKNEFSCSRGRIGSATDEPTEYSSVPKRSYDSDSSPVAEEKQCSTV
In words: CRE reporter gene assay in CHO cells stably expressing AsolRXFP/LGR3. The class given is cell-based, A. cf. solaris. The note with it: for cAMP activity / CRE reporter gene activation: increasing concentrations. On the procedure:
Human embryonic kidney (HEK) 293T cells were grown in complete Dulbecco’s modified Eagle medium (DMEM; Gibco) and Chinese hamster ovary (CHO) cells in complete DMEM/F12 (Gibco). Media was supplemented with 10% fetal bovine serum, 1% penicillin/streptomycin, and 1% L‐glutamine (complete media; All from Gibco). HEK-293T cells were transfected with LipofectAMINE 2000 (Invitrogen) and CHO cells with CHO TransIT and CHO-Mojo (Mirus), both according to the manufacturer’s instructions.
CHO and HEK293T cells stably expressing AsolRXFP/LGR3 were generated by lentiviral transduction. HEK293T cells were plated in 10 cm dishes for transfection with pLenti X1-Ef1α-COT-RXFP-like 2-IRES-GFP along with the lentiviral packaging and envelope plasmids pMDL, pRSV‐Rev, and pCMV‐VSV‐G, using Lipofectamine 2000. The following day, media containing lentivirus was harvested and filtered through a 0.45 μm syringe filter. Fresh CHO and HEK293T cells in 10 cm plates were transduced by replacing the cell culture media with the filtered media containing lentivirus, mixed with 4 μg/mL hexadimethrine bromide (Polybrene) to increase transduction efficiency. Three rounds of transduction were performed over 32 h, before cells were allowed to recover for three days in complete media. Transduced cells were sorted from non-transduced cells using the GFP reporter by fluorescence-activated cell sorting (FACS), using a Becton Dickinson FACSAria III as previously described. Single, live cells with low GFP expression were selected to represent low AsolRXFP/LGR3 expression and were subsequently grown to confluency in a T175 flask and cryopreserved.
The ability of the A. cf. solaris receptors to respond to A. cf. solaris RGP1 and RGP2 peptides was tested using a pCRE β-galactosidase reporter gene assay in CHO cells stably expressing AsolRXFP/LGR3 or HEK-293T cells transfected with AsolRXFP/LGR4 (long) or AsolRXFP/LGR4 (short), as described in detail previously. Importantly, the pCRE β-galactosidase reporter gene assay measures both Gs and Gq activation downstream of GPCR activation by monitoring CREB-mediated gene transcription. Cells were seeded in 96 well plates and were left to grow overnight at 37 °C in an incubator with 5% CO2. The next day the cells were transfected with different amounts of the pCRE reporter gene DNA [57] and/or pcDNA3.1 receptor constructs, as described above, and were left to grow overnight in an incubator. Triplicate wells in each plate were transfected with the equivalent amount of pCRE reporter gene DNA and pcDNA3.1 without a receptor-encoding insert as the background CRE activity control. The next day cells were exposed in triplicate wells to increasing concentrations of peptides diluted in media for 6 h at 37 °C in an incubator. Triplicate parallel wells contained 5 µM forskolin and blank media as positive and negative controls, respectively. At the end of the incubation period, the media was aspirated, and the plate was stored at − 80 °C until development. Plates were thawed for the development of β-galactosidase activity, as described previously, with absorbance being read at 570 nm on an Epoch 2 microplate reader. The data were analyzed as the percentage of the response induced by 5 µM forskolin and pooled followed by fitting to a three-parameter sigmoidal dose–response curve using GraphPad Prism 10. Experiments were performed at least three times with triplicate determinations in each assay (Additional file 17: Dataset S10).
Background: In a reporter assay the amount or activity of a reporter protein is the signal.

The test system of test [2] is ovarian fragments of A. cf. solaris. In words: In vitro spawning assay with ovarian fragments of A. cf. solaris. The note with it: 1 h; for gonadotropic activity (shedding of mature eggs / spawning): 2 × 10^−10–2 × 10^−6 M, four separate assays. From the text: Adult A. cf. solaris were collected from the Great Barrier Reef by Pacific Marine Group divers associated with the Great Barrier Reef Marine Park Authority (GBRMPA) before being transported to the University of the Sunshine Coast aquarium facility. Animals were briefly maintained in a re-circulating protein-skimmed and aerated saltwater system of approximately 1500 L. The animals used were approximately 25–55 cm in diameter and kept unfed for the duration of the experiment. The gender and ovarian maturation stage was determined by using a minor gonad tissue biopsy technique and, thereafter, animals were individually segregated in a flowthrough aerated tank filled with approximately 55 L of filtered seawater for a minimum of 24 h to recover and acclimatize.
AsoRGP1 and AsoRGP2 were synthesized as described previously. In addition, a modified form of AsoRGP2 was synthesized in which the N-terminal residue of the A-chain (glutamine, Q) was substituted with pyroglutamate (pQ), recognizing the possibility of this potential post-translational modification. […] In vitro spawning assays using ovarian fragments were performed following procedures described previously. In brief, the ovaries were excised and cut using scissors into small fragments containing only a few lobes. The ovarian fragments were then incubated in artificial seawater containing RGP-type peptides at a range of concentrations (2 × 10^−10–2 × 10^−6 M) for 1 h. As a control experiment, ovarian fragments were incubated in artificial seawater alone. The samples were examined to determine whether or not in vitro spawning had occurred and were scored as follows: (+ + +) spawning occurred and most oocytes had matured; (+ +) about 50% of oocytes had matured, ( +) a few oocytes had matured and ( −): no spawning occurred. […] Means ± standard error of mean (SEM) were determined from four separate assays using ovaries from four different animals.

Entries after “also recorded” stand apart in the source; their conditions may differ.

Consider “Acanthaster cf. solaris Relaxin-like gonad-stimulating peptide 2 [AsolRGP2]”, for which the “cAMP activity / CRE reporter gene activation” value in test [1] (CHO-AsolRXFP/LGR3 cells) is recorded as “only at high concentrations; also recorded: small but significant response but no clear dose–response”. Besides, the “relative potency/efficacy as ligand for AsolRXFP/LGR3” value in test [1] (compared with RGP1) is on record as “much lower than that of RGP1”. The “gonadotropic activity (shedding of mature eggs / spawning)” value in test [2] was “exhibited gonadotropic activity; also recorded: dose-dependent induction of spawning”. For the same substance, the “relative potency in inducing shedding of mature eggs / spawning” value in test [2] (semi-quantitative, compared with RGP1 or unmodified RGP2) is “slightly less potent than RGP1”.

As to “Acanthaster cf. solaris Relaxin-like gonad-stimulating peptide 1 [AsolRGP1]”, in test [1] (CHO-AsolRXFP/LGR3 cells, 5 µM forskolin = reference, n = 6), the “efficacy (Emax)” value worked out at 38.6 ± 6.9 % forskolin response. In addition, the “cAMP activity / CRE reporter gene activation” value in test [1] (CHO-AsolRXFP/LGR3 cells) was “concentration-dependent cAMP activity; also recorded: dose-dependent increase in CRE reporter gene activation”. The “gonadotropic activity (shedding of mature eggs / spawning)” value in test [2] was “exhibited gonadotropic activity; also recorded: dose-dependent induction of spawning”.

(Values after publication PMC11863921 (BMC Biology, 2025).)
